The source of these data is ChEMBL document CHEMBL3044919 (Med Chem Res, 2005).

Assay [1] can be described thus: Displacement of [3H]DTG from sigma-1 receptor in Cavia porcellus (guinea pig) brain membranes. Further details: species or system Membrane.
Assay [2] addresses Sigma non-opioid intracellular receptor 1 (Cavia porcellus, UniProt Q60492). As to the kind of experiment: Displacement of [3H](+)pentazocine from sigma-1 receptor in Cavia porcellus (guinea pig) brain membranes. The arrangement: species or system Membrane.
The species named for assay [3] is Cavia porcellus. As to the kind of experiment: Selectivity ratio of Ki for sigma-2 receptor in Cavia porcellus (guinea pig) brain membranes to Ki for sigma-1 receptor in Cavia porcellus (guinea pig) brain membranes.
For assay [4], the target named is Histamine H1 receptor (Homo sapiens, UniProt P35367). The assay is described as follows: Binding affinity to histamine H1 (unknown origin).
Chain of Histamine H1 receptor (P35367 whole entry): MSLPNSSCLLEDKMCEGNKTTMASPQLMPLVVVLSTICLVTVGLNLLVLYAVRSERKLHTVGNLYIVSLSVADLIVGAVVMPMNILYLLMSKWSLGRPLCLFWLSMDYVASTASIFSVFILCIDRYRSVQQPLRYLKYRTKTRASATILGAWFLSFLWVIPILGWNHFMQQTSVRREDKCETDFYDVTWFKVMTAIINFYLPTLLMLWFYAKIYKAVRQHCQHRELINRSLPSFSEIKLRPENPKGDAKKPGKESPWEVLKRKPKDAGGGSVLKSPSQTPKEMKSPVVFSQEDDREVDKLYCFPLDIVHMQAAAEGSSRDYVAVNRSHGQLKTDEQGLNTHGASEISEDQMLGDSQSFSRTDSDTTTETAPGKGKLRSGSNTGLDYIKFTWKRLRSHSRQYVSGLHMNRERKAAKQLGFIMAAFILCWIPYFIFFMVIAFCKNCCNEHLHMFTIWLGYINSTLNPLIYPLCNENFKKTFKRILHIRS
The target of assay [5] is T1, Adrenergic receptor alpha-2 (Homo sapiens, UniProt P08913+P18825+P18089).
T1 sequence (P08913 whole entry): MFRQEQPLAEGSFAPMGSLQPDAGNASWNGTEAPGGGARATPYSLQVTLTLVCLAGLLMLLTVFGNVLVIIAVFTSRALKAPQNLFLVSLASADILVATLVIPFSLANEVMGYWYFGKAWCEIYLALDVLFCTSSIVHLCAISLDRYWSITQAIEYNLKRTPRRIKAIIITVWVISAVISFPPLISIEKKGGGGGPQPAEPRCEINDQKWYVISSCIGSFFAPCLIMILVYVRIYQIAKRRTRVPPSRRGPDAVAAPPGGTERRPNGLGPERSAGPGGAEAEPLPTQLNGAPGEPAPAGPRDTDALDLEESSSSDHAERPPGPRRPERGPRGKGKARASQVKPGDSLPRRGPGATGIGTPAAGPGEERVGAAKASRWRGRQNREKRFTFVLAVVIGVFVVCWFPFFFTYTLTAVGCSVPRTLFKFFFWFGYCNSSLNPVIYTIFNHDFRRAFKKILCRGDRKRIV
T1 sequence (P18825 whole entry): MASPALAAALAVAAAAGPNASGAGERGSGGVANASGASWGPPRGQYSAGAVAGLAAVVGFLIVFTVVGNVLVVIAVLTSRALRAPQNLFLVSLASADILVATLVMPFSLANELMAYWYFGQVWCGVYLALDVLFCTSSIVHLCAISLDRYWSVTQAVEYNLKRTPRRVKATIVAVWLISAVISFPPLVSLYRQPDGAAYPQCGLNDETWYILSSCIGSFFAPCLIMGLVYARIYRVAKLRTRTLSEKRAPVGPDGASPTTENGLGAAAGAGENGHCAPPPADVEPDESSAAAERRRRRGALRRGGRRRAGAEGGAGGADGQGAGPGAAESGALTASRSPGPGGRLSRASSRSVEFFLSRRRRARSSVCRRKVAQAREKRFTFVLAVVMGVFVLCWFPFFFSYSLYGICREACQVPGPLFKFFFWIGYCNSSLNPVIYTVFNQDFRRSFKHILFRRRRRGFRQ
T1 sequence (P18089 whole entry): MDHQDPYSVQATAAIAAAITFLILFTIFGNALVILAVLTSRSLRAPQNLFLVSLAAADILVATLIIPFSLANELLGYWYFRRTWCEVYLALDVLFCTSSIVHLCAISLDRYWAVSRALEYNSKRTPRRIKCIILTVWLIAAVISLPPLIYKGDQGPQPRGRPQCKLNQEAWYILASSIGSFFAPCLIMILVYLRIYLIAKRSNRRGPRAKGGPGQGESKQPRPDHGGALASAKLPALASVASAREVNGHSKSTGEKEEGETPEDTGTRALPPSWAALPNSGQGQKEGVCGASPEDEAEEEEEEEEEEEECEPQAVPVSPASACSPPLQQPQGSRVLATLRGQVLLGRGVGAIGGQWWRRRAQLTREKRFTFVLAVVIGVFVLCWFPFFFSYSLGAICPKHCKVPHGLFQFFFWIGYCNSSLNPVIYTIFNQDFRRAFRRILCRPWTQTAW
As to the kind of experiment: Binding affinity to alpha2 receptor (unknown origin).

The target of assay [6] is Kappa-type opioid receptor (Homo sapiens, UniProt P41145). The assay is described as follows: Binding affinity to Kappa opioid receptor (unknown origin).
Chain of Kappa-type opioid receptor (P41145 whole entry): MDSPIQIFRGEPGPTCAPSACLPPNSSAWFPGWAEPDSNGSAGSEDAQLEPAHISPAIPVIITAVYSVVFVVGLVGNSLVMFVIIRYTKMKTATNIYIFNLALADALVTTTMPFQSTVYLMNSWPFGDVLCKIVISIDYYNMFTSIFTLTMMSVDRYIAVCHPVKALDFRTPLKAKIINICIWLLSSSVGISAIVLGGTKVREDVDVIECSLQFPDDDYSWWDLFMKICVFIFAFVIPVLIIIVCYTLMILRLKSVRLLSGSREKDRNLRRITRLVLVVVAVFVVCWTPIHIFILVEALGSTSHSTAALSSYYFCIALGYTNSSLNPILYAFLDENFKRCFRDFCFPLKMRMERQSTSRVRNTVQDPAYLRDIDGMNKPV

Chain of Sigma non-opioid intracellular receptor 1 (Q60492 whole entry): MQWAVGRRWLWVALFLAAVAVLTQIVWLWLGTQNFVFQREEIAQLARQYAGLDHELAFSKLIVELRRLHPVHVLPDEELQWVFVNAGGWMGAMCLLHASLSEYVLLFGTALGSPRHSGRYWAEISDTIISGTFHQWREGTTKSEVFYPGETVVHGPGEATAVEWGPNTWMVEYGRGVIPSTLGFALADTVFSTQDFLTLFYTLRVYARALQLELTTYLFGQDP

With `CCCCc1ccc2c(c1)sc(=O)n2CCN1CCCCC1`, the Ki in assay [1] was over 1000 nM; in assay [2], 3.7 nM.
Take `CCCc1ccc2c(c1)sc(=O)n2CCN1CCCCC1`: in assay [3], the Ratio Ki was determined as 30. The Ki in assay [1] came to 18 nM; in assay [2], 0.6 nM.
With `CCCc1ccc2c(c1)sc(=O)n2CCN1CCCCCC1`, in assay [3], the Ratio Ki was over 1000. Also, the Ki is 311 nM in assay [4], 205 nM in assay [5], over 1000 nM in assay [1] and 0.56 nM in assay [2].
In the case of `CN(C[C@@H]1C[C@@]1(CO)c1ccccc1)C12CC3CC(CC(C3)C1)C2` (relative stereo), in assay [3], the Ratio Ki is 2. Also, the Ki in assay [6] came out at 418 nM; in assay [2], 1.26 nM.
As to `CCCc1ccc2c(c1)sc(=O)n2CCN1C[C@]2(C)CCC[C@]2(C)C1`, the Ki is over 1000 nM in assay [1] and 1.4 nM in assay [2].
In the case of `CCCc1ccc2c(c1)sc(=O)n2CCCN1CCCCC1`, the Ratio Ki in assay [3] was over 1000. Further, the Ki was over 1000 nM in assay [1] and 1.2 nM in assay [2].
For `CCCc1ccc2c(c1)sc(=O)n2CCCCN1CCCCC1`, the Ratio Ki in assay [3] was found to be 4.5. The Ki in assay [1] came to 13 nM; in assay [2] it was 2.9 nM.
For `O=C(c1ccc2c(c1)sc(=O)n2CCN1CCCCC1)C1CC1`, the Ki in assay [1] and in assay [2] was over 1000 nM in each case.
As to `CCC(=O)c1ccc2c(c1)oc(=O)n2CCCN1CCCCC1`, the Ratio Ki in assay [3] was 58. For the same compound, the inhibitory constant (Ki) came out at 496 nM in assay [1] and 8.5 nM in assay [2].
For `CCC(=O)c1ccc2c(c1)sc(=O)n2CCCN1CCCCC1`, in assay [3], the Ratio Ki is 87. Further, the inhibition constant Ki was 202 nM in assay [1] and 2.3 nM in assay [2].
For `CCCc1ccc2c(c1)OCC(=O)N2CCN1CCCCC1`, the Ki was over 1000 nM in assay [1] and 28 nM in assay [2].

The Ki is a measure of affinity in units of concentration, obtained from inhibition or displacement. Read a high Ki as weaker binding.
